These results are taken from patent US10953027B2, “Active agents and methods of their use for the treatment of metabolic disorders and nonalcoholic fatty liver disease” (Flagship Pioneering Innovations V, Inc., priority 2018, dated 2021).

Data set [1] is described as follows: Assay 2. Stability in Simulated Intestinal Fluid (SIF). The following applies: 1 μM, 37° C., SIF pH 6.7 with pancreatin. In kind it is in vitro ADME. As to the method:
Assay 2. Stability of acylated active agents in Simulated Intestinal Fluid (SIF). This assay was used to assess the stability of an acylated active agent in a small intestine.
Phosphate buffer was prepared by dissolving 0.42 g of sodium hydroxide pellets and 3.95 g of monobasic sodium phosphate monohydrate and 6.19 g of sodium chloride in ultrapure water (MilliQ®, Millipore Sigma, Darmstadt, Germany). The pH was adjusted to 6.7 using aq. HCl and aq. NaOH, as necessary, and the solution was diluted with ultrapure water to produce 1 L of the pH 6.7 buffer.
112 mg FaSSIF powder (Biorelevant™, London, UK) was dissolved in 50 mL of the pH 6.7 buffer. 2 to 3 mL of the resulting solution were then added to 500 mg pancreatin (Millipore Sigma, Darmstadt, Germany). The resulting mixture was agitated by finger tapping the vessel containing the mixture until milky suspension formed. At this time, the remainder of the 50 mL FaSSiF/pH 6.7 buffer solution was added. The resulting suspension was flipped upside down 10 times to produce SIF, which was used fresh.
Test compounds were dissolved in DMSO stock to 1 mM. An aliquot of the DMSO stock solution was removed and diluted in the SIF media in 15 mL falcon tubes to produce a mixture with a tested compound concentration of 1 μM. A 1 mL aliquot was immediately removed and diluted once with 1 volume of acetonitrile for T0 timepoint. The mixture was sealed and agitated at 37° C. in an incubator. Aliquots (1 mL) were removed at regular intervals and immediately quenched by the addition of 1 volume of acetonitrile. The resulting samples were analyzed by LC/MS to determine degradation rates.

Data set [2] is described as follows: Assay 1. Stability in Simulated Gastric Fluid (SGF). In kind it is in vitro ADME. The following applies: 1 μM, 37° C., SGF pH 1.6 with pepsin. On the procedure: Assay 1. Stability of acylated active agents in Simulated Gastric Fluid (SGF). This assay was used to assess the stability of an acylated active agent in a stomach.
Medium was prepared by dissolving 2 g of sodium chloride in 0.6 L of ultrapure water (MilliQ®, Millipore Sigma, Darmstadt, Germany). The pH was adjusted to 1.6 with 1N hydrochloric acid, and the volume was then adjusted to 1 L with purified water.
60 mg FaSSIF powder (Biorelevant™, London, UK) were dissolved in 500 mL buffer (above). Pepsin was added (0.1 mg/mL) (Millipore Sigma, Darmstadt, Germany), and the solution was stirred. The resulting SGF media were used fresh for each experiment.
Test compounds were dissolved in DMSO stock to 1 mM. An aliquot of the DMSO stock solution was removed and diluted in the SGF Media in 15 mL falcon tubes to generate a compound concentration of 1 μM. A 1 mL aliquot was immediately removed and diluted once with 1 volume of acetonitrile for T0 timepoint. The mixture was sealed and mixed at 37° C. in an incubator. Aliquots (1 mL) were removed at regular intervals and immediately quenched by the addition of 1 volume of acetonitrile. The resulting samples were analyzed by LC/MS to determine degradation rates in SGF.

`CCCC(=O)Oc1ccc(/C=C/c2cc(OC(=O)CCC)cc(OC(=O)CCC)c2)cc1` [Compound 1, [4-[(E)-2-[3,5-di(butanoyloxy)phenyl]vinyl]phenyl] butanoate]: the “Assay 2 (SIF) (% @ Remaining 4 hours)” value in data set [1] is reported as “B (B: 25-75% of the tested compound remaining)”. In addition, the “Assay 1 (SGF) (% Remaining @ 1 hours)” value in data set [2] is recorded as “C (C: >75% of the tested compound remaining)”.

As to `CCCCCCCC(=O)Oc1ccc(/C=C/c2cc(OC(=O)CCCCCCC)cc(OC(=O)CCCCCCC)c2)cc1` [Compound 11, [4-[(E)-2-[3,5-di(octanoyloxy)phenyl]vinyl]phenyl] octanoate], the “Assay 1 (SGF) (% Remaining @ 1 hours)” value in data set [2] is on record as “C (C: >75% of the tested compound remaining)”.

Regarding `CCCCCCCCCC(=O)Oc1ccc(/C=C/c2cc(OC(=O)CCCCCCCCC)cc(OC(=O)CCCCCCCCC)c2)cc1` [Compound 12, [4-[(E)-2-[3,5-di(decanoyloxy)phenyl]vinyl]phenyl] decanoate], the “Assay 1 (SGF) (% Remaining @ 1 hours)” value in data set [2] was “C (C: >75% of the tested compound remaining)”.

With `CCCC(=O)O[C@H](C)CC(=O)Oc1ccc(/C=C/c2cc(OC(=O)C[C@@H](C)OC(=O)CCC)cc(OC(=O)C[C@@H](C)OC(=O)CCC)c2)cc1` [Compound 13, [4-[(E)-2-[3,5-bis[[(3R)-3-butanoyloxybutanoyl]oxy]phenyl]vinyl]phenyl] (3R)-3-butanoyloxy-butanoate], the “Assay 2 (SIF) (% @ Remaining 4 hours)” value in data set [1] is given as “B (B: 25-75% of the tested compound remaining)”. Besides, the “Assay 1 (SGF) (% Remaining @ 1 hours)” value in data set [2] is listed as “C (C: >75% of the tested compound remaining)”.

In the case of `CC(=O)Oc1ccc(/C=C/c2cc(OC(C)=O)cc(OC(C)=O)c2)cc1` [Compound 18, [4-[(E)-2-(3,5-diacetoxyphenyl)vinyl]phenyl] acetate], the “Assay 2 (SIF) (% @ Remaining 4 hours)” value in data set [1] was “C (C: >75% of the tested compound remaining)”. In addition, in data set [2], the “Assay 1 (SGF) (% Remaining @ 1 hours)” value is reported as “C (C: >75% of the tested compound remaining)”.

Regarding `CCCC(=O)OC[C@@H](OC(=O)CCC)[C@@H](OC(=O)CCC)[C@H](OC(=O)CCC)[C@@H](OC(=O)CCC)C(=O)Oc1ccc(/C=C/c2cc(OC(=O)[C@H](OC(=O)CCC)[C@@H](OC(=O)CCC)[C@H](OC(=O)CCC)[C@@H](COC(=O)CCC)OC(=O)CCC)cc(OC(=O)[C@H](OC(=O)CCC)[C@@H](OC(=O)CCC)[C@H](OC(=O)CCC)[C@@H](COC(=O)CCC)OC(=O)CCC)c2)cc1` [Compound 19, [4-[(E)-2-[3,5-bis[[(2R,3S,4R,5R)-2,3,4,5,6-penta(butanoyloxy)hexanoyl]oxy]phenyl]vinyl]phenyl] (2R,3S,4R,5R)-2,3,4,5,6-penta(butanoyloxy)hexanoate], the “Assay 2 (SIF) (% @ Remaining 4 hours)” value in data set [1] was “B (B: 25-75% of the tested compound remaining)”. Moreover, in data set [2], the “Assay 1 (SGF) (% Remaining @ 1 hours)” value was “B (B: 25-75% of the tested compound remaining)”.

Regarding `CC(=O)Oc1ccc(-c2oc3cc(OC(C)=O)cc(OC(C)=O)c3c(=O)c2OC(C)=O)cc1` [Compound 20, [4-(3,5,7-triacetoxy-4-oxo-chromen-2-yl)phenyl] acetate], the “Assay 2 (SIF) (% @ Remaining 4 hours)” value in data set [1] was “A (A: <25% of the tested compound remaining)”. Moreover, the “Assay 1 (SGF) (% Remaining @ 1 hours)” value in data set [2] is “C (C: >75% of the tested compound remaining)”.

Consider `CC(=O)Oc1ccc([C@@H]2CC(=O)c3c(OC(C)=O)cc(OC(C)=O)cc3O2)cc1` [Compound 21, (S)-2-(4-acetoxyphenyl)-4-oxochromane-5,7-diyl Diacetate], for which the “Assay 2 (SIF) (% @ Remaining 4 hours)” value in data set [1] is on record as “A (A: <25% of the tested compound remaining)”. Moreover, the “Assay 1 (SGF) (% Remaining @ 1 hours)” value in data set [2] is recorded as “C (C: >75% of the tested compound remaining)”.

Regarding `CCCC(=O)Oc1ccc([C@@H]2CC(=O)c3c(OC(=O)CCC)cc(OC(=O)CCC)cc3O2)cc1` [Compound 22, (S)-2-(4-(butyryloxy)phenyl)-4-oxochromane-5,7-diyl dibutyrate], the “Assay 2 (SIF) (% @ Remaining 4 hours)” value in data set [1] is on record as “A (A: <25% of the tested compound remaining)”. Also, in data set [2], the “Assay 1 (SGF) (% Remaining @ 1 hours)” value is recorded as “B (B: 25-75% of the tested compound remaining)”.

Turning to `CC(=O)Oc1cc(OC(C)=O)c2c(=O)c(OC(C)=O)c(-c3cc(OC(C)=O)c(OC(C)=O)c(OC(C)=O)c3)oc2c1` [Compound 23, [3,5-diacetoxy-4-oxo-2-(3,4,5-triacetoxyphenyl)chromen-7-yl] acetate], the “Assay 2 (SIF) (% @ Remaining 4 hours)” value in data set [1] is recorded as “A (A: <25% of the tested compound remaining)”. For the same compound, the “Assay 1 (SGF) (% Remaining @ 1 hours)” value in data set [2] is recorded as “C (C: >75% of the tested compound remaining)”.

Turning to `CC(=O)OCC[C@@H](C)OC(=O)Oc1ccc(/C=C/c2cc(OC(=O)O[C@H](C)CCOC(C)=O)cc(OC(=O)O[C@H](C)CCOC(C)=O)c2)cc1` [Compound 24, [(3R)-3-[4-[(E)-2-[3,5-bis[[(1R)-3-acetoxy-1-methyl-propoxy]carbonyloxy]phenyl]vinyl]phenoxy]carbonyloxybutyl] acetate], in data set [1], the “Assay 2 (SIF) (% @ Remaining 4 hours)” value was “A (A: <25% of the tested compound remaining)”. Moreover, in data set [2], the “Assay 1 (SGF) (% Remaining @ 1 hours)” value was “C (C: >75% of the tested compound remaining)”.

Turning to `CCCC(=O)Oc1ccc(N)cc1C(=O)O.Cl` [Compound 31, 5-amino-2-butanoyloxy-benzoic Acid Hydrochloride], the “Assay 2 (SIF) (% @ Remaining 4 hours)” value in data set [1] is recorded as “C (C: >75% of the tested compound remaining)”. Also, the “Assay 1 (SGF) (% Remaining @ 1 hours)” value in data set [2] was “C (C: >75% of the tested compound remaining)”.

`CCCC(=O)Oc1ccc(/N=N/c2ccc(OC(=O)CCC)c(C(=O)O)c2)cc1C(=O)O` [Compound 32, 2-butanoyloxy-5-[(E)-(4-butanoyloxy-3-carboxy-phenyl)azo]benzoic Acid]: the “Assay 2 (SIF) (% @ Remaining 4 hours)” value in data set [1] was “A (A: <25% of the tested compound remaining)”. Moreover, the “Assay 1 (SGF) (% Remaining @ 1 hours)” value in data set [2] is “A (A: <25% of the tested compound remaining)”.

`CCCC(=O)O[C@@H]1[C@@H](OC(=O)CCC)[C@@H](Oc2ccc(N)cc2C(=O)O)OC[C@H]1OC(=O)CCC` [Compound 33, 5-amino-2-[(2R,3R,4S,5R)-3,4,5-tri(butanoyloxy)tetrahydropyran-2-yl]oxy-benzoic Acid]: the “Assay 2 (SIF) (% @ Remaining 4 hours)” value in data set [1] was “C (C: >75% of the tested compound remaining)”. Moreover, the “Assay 1 (SGF) (% Remaining @ 1 hours)” value in data set [2] is “C (C: >75% of the tested compound remaining)”.

Take `CCC(=O)O[C@@H]1[C@@H](OC(=O)CC)[C@@H](OC(=O)CCc2c[nH]c3ccccc23)OC[C@H]1OC(=O)CC` [Compound 108, (2R,3R,4S,5R)-3,4,5-tris(propanoyloxy)oxan-2-yl 3-(1H-indol-3-yl)propanoate]: the “Assay 1 (SGF) (% Remaining @ 1 hours)” value in data set [2] is “C (C: >75% of the tested compound remaining)”.

For the compound `CCC(=O)O[C@H]1[C@H](OC(=O)CC)[C@H](OC(=O)/C=C/c2c[nH]c3ccccc23)O[C@@H](C)[C@H]1OC(=O)CC` [Compound 148, (2S,3S,4R,5R,6S)-6-methyl-3,4,5-tris(propanoyloxy)oxan-2-yl (2E)-3-(1H-indol-3-yl)prop-2-enoate], the “Assay 1 (SGF) (% Remaining @ 1 hours)” value in data set [2] is on record as “C (C: >75% of the tested compound remaining)”.

For `CCC(=O)O[C@@H]1OC[C@H](OC(=O)CC)[C@H](OC(=O)CC)[C@H]1OC(=O)CC` [Compound 160, (2S,3R,4S,5S)-3,4,5-tris(propanoyloxy)oxan-2-yl Propanoate], the “Assay 1 (SGF) (% Remaining @ 1 hours)” value in data set [2] is reported as “C (C: >75% of the tested compound remaining)”.

For the compound `CCCC(=O)OCC1(OC(=O)CCC)OC[C@@H](OC(=O)CCC)[C@H](OC(=O)CCC)[C@@H]1OC(=O)CCC` (stereo partly drawn) [Compound 163, [(3S,4S,5R)-2,3,4,5-tetrakis(butanoyloxy)oxan-2-yl]methyl Butanoate], the “Assay 1 (SGF) (% Remaining @ 1 hours)” value in data set [2] was “C (C: >75% of the tested compound remaining)”.

With `C[C@@H]1CCO[C@H](C(=O)Oc2ccc(/C=C/c3cc(O)cc(OC(=O)[C@H]4OCC[C@@H](C)O4)c3)cc2)O1` [Compound 256, 4-[(1E)-2-{3-hydroxy-5-[(2S,4R)-4-methyl-1,3-dioxane-2-carbonyloxy]phenyl}ethenyl]phenyl (2S,4R)-4-methyl-1,3-dioxane-2-carboxylate], in data set [2], the “Assay 1 (SGF) (% Remaining @ 1 hours)” value is on record as “A (A: <25% of the tested compound remaining)”.

As for `C[C@@H]1CCOC(C(=O)Oc2ccc(/C=C/c3cc(OC(=O)C4OCC[C@@H](C)O4)cc(OC(=O)C4OCC[C@@H](C)O4)c3)cc2)O1` (stereo partly drawn) [Compound 258, 3-[(4R)-4-methyl-1,3-dioxane-2-carbonyloxy]-5-[(1E)-2-{4-[(4R)-4-methyl-1,3-dioxane-2-carbonyloxy]phenyl}ethenyl]phenyl (4R)-4-methyl-1,3-dioxane-2-carboxylate], the “Assay 1 (SGF) (% Remaining @ 1 hours)” value in data set [2] is reported as “A (A: <25% of the tested compound remaining)”.
